These results are taken from ChEMBL document CHEMBL1157381, “Alkaloids from the Australian rainforest tree Ochrosia moorei” (J Nat Prod, 2008).

Active and inactive are the calls of the source. The calls are words filed in the database; no cut-off is given here.

Format in all cases: cell-based
In series [1] the target is T1, Glucocorticoid receptor (Homo sapiens) (UniProt P04150).
T1 sequence (whole entry): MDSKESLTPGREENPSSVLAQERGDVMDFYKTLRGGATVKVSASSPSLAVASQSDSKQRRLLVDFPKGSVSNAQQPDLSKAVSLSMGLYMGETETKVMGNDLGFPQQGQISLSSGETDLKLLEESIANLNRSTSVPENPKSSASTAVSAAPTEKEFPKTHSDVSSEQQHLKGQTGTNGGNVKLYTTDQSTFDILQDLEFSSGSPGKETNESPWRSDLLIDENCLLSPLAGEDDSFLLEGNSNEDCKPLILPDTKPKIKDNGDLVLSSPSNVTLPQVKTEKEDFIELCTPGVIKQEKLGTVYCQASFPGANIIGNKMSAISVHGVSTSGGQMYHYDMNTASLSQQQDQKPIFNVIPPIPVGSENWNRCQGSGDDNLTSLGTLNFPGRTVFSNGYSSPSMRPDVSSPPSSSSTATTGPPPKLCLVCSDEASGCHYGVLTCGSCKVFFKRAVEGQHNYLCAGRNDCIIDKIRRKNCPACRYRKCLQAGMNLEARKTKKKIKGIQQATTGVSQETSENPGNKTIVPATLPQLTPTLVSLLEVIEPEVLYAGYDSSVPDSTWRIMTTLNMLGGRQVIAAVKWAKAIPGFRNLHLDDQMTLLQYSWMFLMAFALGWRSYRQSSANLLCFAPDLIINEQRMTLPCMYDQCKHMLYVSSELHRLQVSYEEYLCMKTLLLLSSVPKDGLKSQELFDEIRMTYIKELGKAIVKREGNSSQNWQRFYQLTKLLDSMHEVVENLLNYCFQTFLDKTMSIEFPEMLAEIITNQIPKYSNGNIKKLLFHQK
The experiment in a line: Inhibition of glucocorticoid receptor-glucocorticoid complex transfected in rat R1 cells assessed as down-regulation of TPA-responsive element proinflammatory gene expression at 100 uM after 24 hrs by beta-galactosidase assay. Details: scale not given: the % may be the effect or the level left.

Series [2] deals with T1, Glucocorticoid receptor (Homo sapiens). The series can be described thus: Inhibition of glucocorticoid receptor-glucocorticoid complex transfected in rat R1 cells assessed as down-regulation of TPA-responsive element proinflammatory gene expression at 10 uM after 24 hrs by beta-galactosidase assay.
The target in series [3] is T2, Glucocorticoid receptor (Homo sapiens, UniProt P04150).
T2 sequence (P04150 whole entry): T1 sequence (whole entry)
The experiment in a line: Inhibition of glucocorticoid receptor-glucocorticoid complex transfected in rat R1 cells assessed as down-regulation of TPA-responsive element proinflammatory gene expression after 24 hrs by beta-galactosidase assay.

Series [4] has as its system R1. The series can be described thus: Cytotoxicity against rat R1 cells at 100 uM after 24 hrs by neutral red assay. As to conditions: r1, 24 h.

Regarding `C=C[C@H]1[C@H](O[C@H]2O[C@H](CO)[C@@H](O)[C@H](O)[C@H]2O)OC=C(C(=O)OC)[C@H]1Cc1nc(C(=O)O)cc2c1[nH]c1ccccc12`, the Activity in series [1] worked out at 30%. Take `CN1c2ccccc2[C@]23CCN4C=C(C(=O)CO)[C@H](C[C@H]42)C[C@H]13`: the outcome in series [2] was inactive. In the case of `Cc1c2ccncc2c(C)c2c1[nH]c1ccccc12` [ELLIPTECINE], the IC50 (commonly the midpoint of a concentration-inhibition curve) in series [3] worked out at 90 µM. Moreover, the Activity entry in series [4] is given as “Non-toxic”.

Consider `CC(=O)C1=CN2CC[C@]34c5ccccc5N(C)[C@H]3C[C@H]1C[C@H]24`, for which the outcome in series [2] was inactive. With `C=C1c2[nH]c3ccccc3c2CN2CC[C@H]1/C(=C\C)C2`, the Activity in series [1] was found to be 54%. Take `COc1ccc2[nH]c3c(C)c4ccncc4c(C)c3c2c1`: the IC50 in series [3] is 90 µM. Besides, in series [4], the Activity result is reported as “Non-toxic”.
